# From BigSolDB 2.1
smiles,measurement,setting,value
Nc1ccc(Cl)cc1[N+](=O)[O-],solubility (mole fraction),"in 1,4-dioxane, 288.15 K",0.0282
same,solubility (mole fraction),"in 1,4-dioxane, 293.15 K",0.0337
same,solubility (mole fraction),"in 1,4-dioxane, 298.15 K",0.0405
same,solubility (mole fraction),"in 1,4-dioxane, 303.15 K",0.0509
same,solubility (mole fraction),"in 1,4-dioxane, 308.15 K",0.065
same,solubility (mole fraction),"in 1,4-dioxane, 313.15 K",0.0828
same,solubility (mole fraction),"in 1,4-dioxane, 318.15 K",0.105
same,solubility (mole fraction),"in 1,4-dioxane, 323.15 K",0.133
same,solubility (mole fraction),"in NMP, 278.15 K",0.0539
same,solubility (mole fraction),"in NMP, 283.15 K",0.0605
same,solubility (mole fraction),"in NMP, 288.15 K",0.0737
same,solubility (mole fraction),"in NMP, 293.15 K",0.0887
same,solubility (mole fraction),"in NMP, 298.15 K",0.106
same,solubility (mole fraction),"in NMP, 303.15 K",0.125
same,solubility (mole fraction),"in NMP, 308.15 K",0.142
same,solubility (mole fraction),"in NMP, 313.15 K",0.167
same,solubility (mole fraction),"in NMP, 318.15 K",0.187
same,solubility (mole fraction),"in NMP, 323.15 K",0.223
same,solubility (mole fraction),"in acetonitrile, 278.15 K",0.0327
same,solubility (mole fraction),"in acetonitrile, 283.15 K",0.0373
same,solubility (mole fraction),"in acetonitrile, 288.15 K",0.0442
same,solubility (mole fraction),"in acetonitrile, 293.15 K",0.053
same,solubility (mole fraction),"in acetonitrile, 298.15 K",0.0625
same,solubility (mole fraction),"in acetonitrile, 303.15 K",0.075
same,solubility (mole fraction),"in acetonitrile, 308.15 K",0.09
same,solubility (mole fraction),"in acetonitrile, 313.15 K",0.105
same,solubility (mole fraction),"in acetonitrile, 318.15 K",0.124
same,solubility (mole fraction),"in acetonitrile, 323.15 K",0.145
same,solubility (mole fraction),"in cyclohexane, 278.15 K",0.000163
same,solubility (mole fraction),"in cyclohexane, 283.15 K",0.000195
same,solubility (mole fraction),"in cyclohexane, 288.15 K",0.000267
same,solubility (mole fraction),"in cyclohexane, 293.15 K",0.000354
same,solubility (mole fraction),"in cyclohexane, 298.15 K",0.000468
same,solubility (mole fraction),"in cyclohexane, 303.15 K",0.000613
same,solubility (mole fraction),"in cyclohexane, 308.15 K",0.000773
same,solubility (mole fraction),"in cyclohexane, 313.15 K",0.000983
same,solubility (mole fraction),"in cyclohexane, 318.15 K",0.00124
same,solubility (mole fraction),"in cyclohexane, 323.15 K",0.0016
same,solubility (mole fraction),"in ethanol, 278.15 K",0.013
same,solubility (mole fraction),"in ethanol, 283.15 K",0.0144
same,solubility (mole fraction),"in ethanol, 288.15 K",0.0168
same,solubility (mole fraction),"in ethanol, 293.15 K",0.0194
same,solubility (mole fraction),"in ethanol, 298.15 K",0.0232
same,solubility (mole fraction),"in ethanol, 303.15 K",0.0277
same,solubility (mole fraction),"in ethanol, 308.15 K",0.0323
same,solubility (mole fraction),"in ethanol, 313.15 K",0.0371
same,solubility (mole fraction),"in ethanol, 318.15 K",0.043
same,solubility (mole fraction),"in ethanol, 323.15 K",0.0493
same,solubility (mole fraction),"in ethyl acetate, 278.15 K",0.0193
same,solubility (mole fraction),"in ethyl acetate, 283.15 K",0.0244
same,solubility (mole fraction),"in ethyl acetate, 288.15 K",0.032
same,solubility (mole fraction),"in ethyl acetate, 293.15 K",0.0418
same,solubility (mole fraction),"in ethyl acetate, 298.15 K",0.0535
same,solubility (mole fraction),"in ethyl acetate, 303.15 K",0.0684
same,solubility (mole fraction),"in ethyl acetate, 308.15 K",0.0883
same,solubility (mole fraction),"in ethyl acetate, 313.15 K",0.113
same,solubility (mole fraction),"in ethyl acetate, 318.15 K",0.143
same,solubility (mole fraction),"in ethyl acetate, 323.15 K",0.177
same,solubility (mole fraction),"in ethylene glycol, 278.15 K",0.00179
same,solubility (mole fraction),"in ethylene glycol, 283.15 K",0.00229
same,solubility (mole fraction),"in ethylene glycol, 288.15 K",0.00281
same,solubility (mole fraction),"in ethylene glycol, 293.15 K",0.00363
same,solubility (mole fraction),"in ethylene glycol, 298.15 K",0.00453
same,solubility (mole fraction),"in ethylene glycol, 303.15 K",0.00573
same,solubility (mole fraction),"in ethylene glycol, 308.15 K",0.00737
same,solubility (mole fraction),"in ethylene glycol, 313.15 K",0.00926
same,solubility (mole fraction),"in ethylene glycol, 318.15 K",0.0118
same,solubility (mole fraction),"in ethylene glycol, 323.15 K",0.0158
same,solubility (mole fraction),"in isopropanol, 278.15 K",0.0111
same,solubility (mole fraction),"in isopropanol, 283.15 K",0.0123
same,solubility (mole fraction),"in isopropanol, 288.15 K",0.0145
same,solubility (mole fraction),"in isopropanol, 293.15 K",0.0175
same,solubility (mole fraction),"in isopropanol, 298.15 K",0.0208
same,solubility (mole fraction),"in isopropanol, 303.15 K",0.0252
same,solubility (mole fraction),"in isopropanol, 308.15 K",0.0296
same,solubility (mole fraction),"in isopropanol, 313.15 K",0.0352
same,solubility (mole fraction),"in isopropanol, 318.15 K",0.0406
same,solubility (mole fraction),"in isopropanol, 323.15 K",0.0463
same,solubility (mole fraction),"in methanol, 278.15 K",0.0158
same,solubility (mole fraction),"in methanol, 283.15 K",0.017
same,solubility (mole fraction),"in methanol, 288.15 K",0.0199
same,solubility (mole fraction),"in methanol, 293.15 K",0.0239
same,solubility (mole fraction),"in methanol, 298.15 K",0.0287
same,solubility (mole fraction),"in methanol, 303.15 K",0.034
same,solubility (mole fraction),"in methanol, 308.15 K",0.0403
same,solubility (mole fraction),"in methanol, 313.15 K",0.0479
same,solubility (mole fraction),"in methanol, 318.15 K",0.056
same,solubility (mole fraction),"in methanol, 323.15 K",0.0667
same,solubility (mole fraction),"in n-butanol, 278.15 K",0.00963
same,solubility (mole fraction),"in n-butanol, 283.15 K",0.0107
same,solubility (mole fraction),"in n-butanol, 288.15 K",0.0124
same,solubility (mole fraction),"in n-butanol, 293.15 K",0.0146
same,solubility (mole fraction),"in n-butanol, 298.15 K",0.0177
same,solubility (mole fraction),"in n-butanol, 303.15 K",0.0215
same,solubility (mole fraction),"in n-butanol, 308.15 K",0.0257
same,solubility (mole fraction),"in n-butanol, 313.15 K",0.0301
same,solubility (mole fraction),"in n-butanol, 318.15 K",0.0357
same,solubility (mole fraction),"in n-butanol, 323.15 K",0.0427
same,solubility (mole fraction),"in n-propanol, 278.15 K",0.0119
same,solubility (mole fraction),"in n-propanol, 283.15 K",0.013
same,solubility (mole fraction),"in n-propanol, 288.15 K",0.0152
same,solubility (mole fraction),"in n-propanol, 293.15 K",0.018
same,solubility (mole fraction),"in n-propanol, 298.15 K",0.0217
same,solubility (mole fraction),"in n-propanol, 303.15 K",0.0259
same,solubility (mole fraction),"in n-propanol, 308.15 K",0.0308
same,solubility (mole fraction),"in n-propanol, 313.15 K",0.0362
same,solubility (mole fraction),"in n-propanol, 318.15 K",0.042
same,solubility (mole fraction),"in n-propanol, 323.15 K",0.0481
same,solubility (mole fraction),"in water, 278.15 K",8e-06
same,solubility (mole fraction),"in water, 283.15 K",1e-05
same,solubility (mole fraction),"in water, 288.15 K",1.4e-05
same,solubility (mole fraction),"in water, 293.15 K",1.9e-05
same,solubility (mole fraction),"in water, 298.15 K",2.5e-05
same,solubility (mole fraction),"in water, 303.15 K",3.3e-05
same,solubility (mole fraction),"in water, 308.15 K",4.3e-05
same,solubility (mole fraction),"in water, 313.15 K",5.5e-05
same,solubility (mole fraction),"in water, 318.15 K",7e-05
same,solubility (mole fraction),"in water, 323.15 K",8.6e-05
